Results: paper PMC9378659, “Design and synthesis of new N-thioacylated ciprofloxacin derivatives as urease inhibitors with potential antibacterial activity” (Scientific Reports, 2022)
≈ marks a conversion by molar mass, not a printed value. Like-named read-outs stand apart in the source and are kept apart here.

What was measured:
[1] = molecular target: T1, jack bean urease (JBU; EC 3.5.1.5) (Canavalia ensiformis, UniProt P07374); assay: biochemical; conditions: JB urease, mean ± SEM, at least three experiments
T1 construct: purchased Sigma-Aldrich
Protocol: All chemicals and jack bean urease (JBU; EC 3.5.1.5) were purchased from Sigma-Aldrich. The urease inhibitory activity of N-thioacylated ciprofloxacin derivatives 3a–n was determined by Berthelot colorimetric method. The ammonia (NH3) produced by the urease enzyme along with indicator solutions including hypochlorite (OCl^−) and phenol make a blue-colored indophenol complex and the absorbance was measured at 625 nm by a Synergy H1 Hybrid multimode microplate reader (BioTek, Winooski, VT, USA).
Assay completed in two steps, at the first step the enzyme cocktail for each compound consisted of 50 µl urease enzyme (3 mg/ml in phosphate buffer, pH 7.4), 100 µl of test compound at different concentrations (0–10 mg/ml, in phosphate buffer, pH 7.4) and 850 µl urea solution (30 mM, in phosphate buffer, pH 7.4). This mixture was incubated at 37 °C for 30 min.
For the second step, each 100 µl of the above mixture was added to 500 µl of indicator solutions A (0.5 g phenol and 25 mg sodium nitroprusside in 500 ml distilled water) and 500 µl of B (2.5 g sodium hydroxide and 4.2 ml sodium hypochlorite (5%) in 500 ml distilled water) and further incubated at 37 °C for 30 min. The absorbance of blue-colored indophenol of each cell is related to the percentage of enzyme inhibition using the following equation: I%=1-T/C×100.
In this equation, I (%) is assigned to the percent of enzyme inhibition. (T) is assigned to the absorbance of our test compounds and C is assigned to the negative control absorbance which is the absorbance of our cocktail without any inhibitor compound. Thiourea and hydroxyurea were used as the positive controls. The IC50 values of test compounds were calculated using GraphPad PRISM 8.0 software (GraphPad, San Diego, CA, USA).

[2] = system: Pseudomonas aeruginosa ATCC 9027; assay: Antibacterial activity, agar dilution MIC; format: cell-based; conditions: ATCC9027, read-out: MIC P. aeruginosa
Protocol: (§1) Antibacterial activity of the synthesized compounds 3a–n were determined according to the agar dilution methods for Gram-positive bacteria strains (Staphylococcus aureus ATCC 6538 and Staphylococcus epidermidis ATCC 12228) and Gram-negative bacteria strains (Escherichia coli ATCC 8739 and Pseudomonas aeruginosa ATCC 9027).
(§2) Two Gram-positive bacteria strains (Staphylococcus aureus ATCC 6538 and Staphylococcus epidermidis ATCC 12228) and two Gram-negative bacteria strains (Escherichia coli ATCC 8739 and Pseudomonas aeruginosa ATCC 9027) were used for evaluation of the synthesized N-thioacylated ciprofloxacin derivatives 3a–n. All the strains were obtained from Iranian Microbial Collection (Pasteur Institute of Iran, Tehran, Iran). The antibacterial activity of the synthesized compounds was determined according to the agar dilution methods of the National Committee for Clinical Laboratory Standards[43].
(§3) Briefly, a series of twofold dilutions of test compounds 3a–n and ciprofloxacin, the standard antibiotic, were dissolved in 1 ml of DMSO. Each concentration was added to molten test agars that have been allowed to equilibrate in a water bath to 55 °C, to attain the concentrations ranging from 100 to 0.003 µg/ml. To compare the MIC values; the standard antibiotic, ciprofloxacin was also diluted in the same manner.
(§4) To prepare the inoculums suspensions, the bacteria were cultured on Muller-Hinton agar 12–16 h before the test. On the day of the experiment, a single colony of each bacteria was suspended Muller–Hinton broth to reach the turbidity of 0.5 McFarland standard (0.08–0.1 absorbance at 600 nm), which is approximately equivalent to 1.5 × 10^8 CFU/ml. The suspensions were then diluted at 1:10 in sterile saline to obtain a concentration of 1.5 × 10^7 CFU/ml. The plates were dot inoculated with 2 ul of each bacterial suspension and incubated at 37 °C overnight. The MIC was also defined as the lowest concentration of test compounds that completely prevents the growth of bacteria on agar plate following overnight incubation.

[3] = system: Staphylococcus epidermidis ATCC 12228; assay: Antibacterial activity, agar dilution MIC; format: cell-based; conditions: ATCC12228, read-out: MIC S. epidermidis
Protocol: as §1, §2, §3, §4

[4] = system: Escherichia coli ATCC 8739; assay: Antibacterial activity, agar dilution MIC; format: cell-based; conditions: ATCC8739
Protocol: as §1, §2, §3, §4

[5] = system: Staphylococcus aureus ATCC 6538; assay: Antibacterial activity, agar dilution MIC; format: cell-based; conditions: ATCC6538, read-out: MIC S. aureus
Protocol: as §1, §2, §3, §4

urease = system: urease; set-up: method as in PMID 34179623; conditions: read-out: IC50 against urease; cited from earlier work
jack bean urease = system: jack bean urease; set-up: method as in PMID 28574649; conditions: read-out: IC50 against urease; cited from earlier work
C. neoformans (H99) = assay: Anti-ureolytic assay, colorimetric microdilution in urea broth; format: cell-based; conditions: Cryptococcus neoformans, urea broth pH 6
Protocol: (§5) The colorimetric microdilution technique using urea broth media (Merck, supplemented with glucose; pH 6 for C. neoformans) was used to determine the ureolytic activity of C. neoformans (H99), and clinical isolate of P. vulgaris treated with 3n according to previously reported procedures[18],[37].

[6] = system: clinical isolate of P. vulgaris; assay: as above; format: cell-based; conditions: Proteus vulgaris
Protocol: as §5

[7] = IC50 urease inhibitory activity
[8] = read-out: IC50 urease inhibitory activity

T1 sequence (P07374 whole entry, looked up): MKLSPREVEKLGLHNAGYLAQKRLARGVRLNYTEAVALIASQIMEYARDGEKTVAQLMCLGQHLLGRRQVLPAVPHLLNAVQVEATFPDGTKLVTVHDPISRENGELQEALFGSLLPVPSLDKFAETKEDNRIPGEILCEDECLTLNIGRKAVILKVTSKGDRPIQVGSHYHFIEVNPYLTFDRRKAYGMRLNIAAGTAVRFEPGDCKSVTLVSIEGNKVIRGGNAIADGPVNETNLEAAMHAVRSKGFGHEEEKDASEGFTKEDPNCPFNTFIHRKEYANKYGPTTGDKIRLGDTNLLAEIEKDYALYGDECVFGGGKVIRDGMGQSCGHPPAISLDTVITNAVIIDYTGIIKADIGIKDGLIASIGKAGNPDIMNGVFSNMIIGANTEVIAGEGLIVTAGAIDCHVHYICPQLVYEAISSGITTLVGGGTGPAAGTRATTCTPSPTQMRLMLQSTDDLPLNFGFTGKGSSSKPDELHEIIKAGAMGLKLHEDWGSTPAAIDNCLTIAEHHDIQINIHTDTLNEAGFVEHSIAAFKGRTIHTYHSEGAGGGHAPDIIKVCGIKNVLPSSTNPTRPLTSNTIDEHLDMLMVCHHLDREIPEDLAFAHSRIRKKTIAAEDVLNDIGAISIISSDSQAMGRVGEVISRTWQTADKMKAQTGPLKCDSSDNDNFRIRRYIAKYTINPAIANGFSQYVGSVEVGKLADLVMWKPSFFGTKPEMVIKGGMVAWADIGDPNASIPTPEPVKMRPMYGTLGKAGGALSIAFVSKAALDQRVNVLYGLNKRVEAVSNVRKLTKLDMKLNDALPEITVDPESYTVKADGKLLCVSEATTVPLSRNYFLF

SMILES | IC50 [1, 7] | MIC [2] | MIC [3] | MIC [4] | MIC [5] | melting point | IC50 [1, 8] | IC50 (urease) | IC50 (jack bean urease) | IC50 (C. neoformans (H99)) | IC50 [6]
O=C(O)c1cn(C2CC2)c2cc(N3CCN(C(=S)c4cccc([N+](=O)[O-])c4)CC3)c(F)cc2c1=O [Compound 3g, 1-Cyclopropyl-6-fluoro-7-(4-(3-nitrophenylcarbonothioyl)piperazin-1-yl)-4-oxo-1,4-dihydroquinoline-3-carboxylic acid] | 5.87 ± 0.07 µM | 0.39 µg/mL (≈ 0.785 µM) | 0.024 µg/mL (≈ 0.0483 µM) | 0.012 µg/mL (≈ 0.0242 µM) | 0.024 µg/mL (≈ 0.0483 µM) | – | – | – | – | – | –
COc1ccc(C(=S)N2CCN(c3cc4c(cc3F)c(=O)c(C(=O)O)cn4C3CC3)CC2)cc1 [Compound 3f, 1-Cyclopropyl-6-fluoro-7-(4-(4-methoxyphenylcarbonothioyl)piperazin-1-yl)-4-oxo-1,4-dihydroquinoline-3-carboxylic acid] | 21.36 ± 0.08 µM | 3.12 µg/mL (≈ 6.49 µM) | 0.024 µg/mL (≈ 0.0498 µM) | 0.097 µg/mL (≈ 0.201 µM) | 0.024 µg/mL (≈ 0.0498 µM) | > 250 °C | – | – | – | – | –
O=C(O)c1cn(C2CC2)c2cc(N3CCN(C(=S)c4ccc(Cl)cc4)CC3)c(F)cc2c1=O [Compound 3e, 7-(4-(4-Chlorophenylcarbonothioyl)piperazin-1-yl)-1-cyclopropyl-6-fluoro-4-oxo-1,4-dihydroquinoline-3-carboxylic acid] | 6.55 ± 0.05 µM | 0.781 µg/mL (≈ 1.61 µM) | 0.048 µg/mL (≈ 0.0988 µM) | 0.024 µg/mL (≈ 0.0494 µM) | 0.048 µg/mL (≈ 0.0988 µM) | > 250 °C | – | – | – | – | –
O=C(O)c1cn(C2CC2)c2cc(N3CCNCC3)c(F)cc2c1=O [Ciprofloxacin] | – | 0.048 µg/mL (≈ 0.145 µM) | 0.048 µg/mL (≈ 0.145 µM) | < 0.003 µg/mL | 0.024 µg/mL (≈ 0.0724 µM) | – | – | – | – | – | –
NC(=O)NO [Hydroxyurea, reference compound] | – | – | – | – | – | – | 100 ± 2.5 µM | – | – | – | –
NC(N)=S [Thiourea] | – | – | – | – | – | – | 23 ± 0.84 µM | 21.7 ± 0.34 µM | 4720 ± 174 nM | – | –
O=C(O)c1cn(C2CC2)c2cc(N3CCN(C(=S)c4cccc(F)c4)CC3)c(F)cc2c1=O [Compound 3h, 1-Cyclopropyl-6-fluoro-7-(4-(3-fluorophenylcarbonothioyl)piperazin-1-yl)-4-oxo-1,4-dihydroquinoline-3-carboxylic acid] | 4.08 ± 0.03 µM | 0.048 µg/mL (≈ 0.102 µM) | 0.097 µg/mL (≈ 0.207 µM) | < 0.003 µg/mL | 0.048 µg/mL (≈ 0.102 µM) | – | – | – | – | – | –
O=C(O)c1cn(C2CC2)c2cc(N3CCN(C(=S)c4ccc([N+](=O)[O-])cc4)CC3)c(F)cc2c1=O [Compound 3n, 1-Cyclopropyl-6-fluoro-7-(4-(4-nitrophenylcarbonothioyl)piperazin-1-yl)-4-oxo-1,4-dihydroquinoline-3-carboxylic acid] | 2.05 ± 0.03 µM | 1.56 µg/mL (≈ 3.15 µM) | 0.39 µg/mL (≈ 0.785 µM) | 0.097 µg/mL (≈ 0.195 µM) | 0.781 µg/mL (≈ 1.57 µM) | – | – | – | – | 5.59 ± 2.38 µg/mL (≈ 11.3 µM) | 5.72 ± 1.31 µg/mL (≈ 11.5 µM)
NC(=S)N1N=C(c2cc3ccccc3oc2=O)CC1c1ccccc1 (centres unmarked) [Compound D] | – | – | – | – | – | – | – | – | 0.358 ± 0.017 nM | – | –
O=C(O)c1cn(C2CC2)c2cc(N3CCN(C(=S)c4ccc(F)cc4)CC3)c(F)cc2c1=O [Compound 3d, 1-Cyclopropyl-6-fluoro-7-(4-(4-fluorophenylcarbonothioyl)piperazin-1-yl)-4-oxo-1,4-dihydroquinoline-3-carboxylic acid] | 2.94 ± 0.04 µM | 0.781 µg/mL (≈ 1.66 µM) | 0.048 µg/mL (≈ 0.102 µM) | 0.097 µg/mL (≈ 0.207 µM) | 0.097 µg/mL (≈ 0.207 µM) | > 250 °C | – | – | – | – | –
O=C(O)c1cn(C2CC2)c2cc(N3CCN(C(=S)c4cccc(O)c4)CC3)c(F)cc2c1=O [Compound 3j, 1-Cyclopropyl-6-fluoro-7-(4-(3-hydroxyphenylcarbonothioyl)piperazin-1-yl)-4-oxo-1,4-dihydroquinoline-3-carboxylic acid] | 19.6 ± 0.17 µM | 0.781 µg/mL (≈ 1.67 µM) | 0.048 µg/mL (≈ 0.103 µM) | 0.024 µg/mL (≈ 0.0513 µM) | 0.097 µg/mL (≈ 0.207 µM) | > 250 °C | – | – | – | – | –
O=C(O)c1cn(C2CC2)c2cc(N3CCN(C(=S)c4ccc(Br)cc4)CC3)c(F)cc2c1=O [Compound 3l, 7-(4-(4-Bromophenylcarbonothioyl)piperazin-1-yl)-1-cyclopropyl-6-fluoro-4-oxo-1,4-dihydroquinoline-3-carboxylic acid] | 8.21 ± 0.06 µM | 0.848 µg/mL (≈ 1.6 µM) | 0.048 µg/mL (≈ 0.0905 µM) | 0.028 µg/mL (≈ 0.0528 µM) | 0.048 µg/mL (≈ 0.0905 µM) | > 250 °C | – | – | – | – | –
O=C(O)c1cn(C2CC2)c2cc(N3CCN(C(=S)c4ccccc4F)CC3)c(F)cc2c1=O [Compound 3i, 1-Cyclopropyl-6-fluoro-7-(4-(2-fluorophenylcarbonothioyl)piperazin-1-yl)-4-oxo-1,4-dihydroquinoline-3-carboxylic acid] | 15 ± 0.16 µM | 2.5 µg/mL (≈ 5.32 µM) | 0.024 µg/mL (≈ 0.0511 µM) | 0.0195 µg/mL (≈ 0.0415 µM) | 0.024 µg/mL (≈ 0.0511 µM) | > 250 °C | – | – | – | – | –
COc1cccc(C(=S)N2CCN(c3cc4c(cc3F)c(=O)c(C(=O)O)cn4C3CC3)CC2)c1 [Compound 3b, 1-Cyclopropyl-6-fluoro-7-(4-(3-methoxyphenylcarbonothioyl)piperazin-1-yl)-4-oxo-1,4-dihydroquinoline-3-carboxylic acid] | 17.02 ± 0.16 µM | 3.12 µg/mL (≈ 6.49 µM) | 0.024 µg/mL (≈ 0.0498 µM) | 0.097 µg/mL (≈ 0.201 µM) | 0.048 µg/mL (≈ 0.0997 µM) | > 250 °C | – | – | – | – | –
O=C(O)c1cn(C2CC2)c2cc(N3CCN(C(=S)c4ccccc4)CC3)c(F)cc2c1=O [Compound 3a, 1-Cyclopropyl-6-fluoro-4-oxo-7-(4-(phenylcarbonothioyl)piperazin-1-yl)-1,4 dihydroquinoline-3-carboxylic acid] | 10.61 ± 0.09 µM | 6.25 µg/mL (≈ 13.8 µM) | 0.024 µg/mL (≈ 0.0532 µM) | 0.048 µg/mL (≈ 0.106 µM) | 0.048 µg/mL (≈ 0.106 µM) | > 250 °C | – | – | – | – | –
Cc1ccc(C(=S)N2CCN(c3cc4c(cc3F)c(=O)c(C(=O)O)cn4C3CC3)CC2)cc1 [Compound 3c, 1-Cyclopropyl-6-fluoro-7-(4-(4-methylphenylcarbonothioyl)piperazin-1-yl)-4-oxo-1,4-dihydroquinoline-3-carboxylic acid] | 20.63 ± 0.19 µM | 3.12 µg/mL (≈ 6.71 µM) | 0.024 µg/mL (≈ 0.0516 µM) | 0.097 µg/mL (≈ 0.208 µM) | 0.048 µg/mL (≈ 0.103 µM) | > 250 °C | – | – | – | – | –
O=C(O)c1cn(C2CC2)c2cc(N3CCN(C(=S)c4cccc(Cl)c4)CC3)c(F)cc2c1=O [Compound 3m, 7-(4-(3-Chlorophenylcarbonothioyl)piperazin-1-yl)-1-cyclopropyl-6-fluoro-4-oxo-1,4-dihydroquinoline-3-carboxylic acid] | 12.2 ± 0.24 µM | 6.25 µg/mL (≈ 12.9 µM) | 0.097 µg/mL (≈ 0.2 µM) | 0.048 µg/mL (≈ 0.0988 µM) | 0.048 µg/mL (≈ 0.0988 µM) | > 250 °C | – | – | – | – | –
O=C(O)c1cn(C2CC2)c2cc(N3CCN(C(=S)c4cccc(Oc5ccccc5)c4)CC3)c(F)cc2c1=O [Compound 3k, 1-Cyclopropyl-6-fluoro-4-oxo-7-(4-(3-phenoxyphenylcarbonothioyl)piperazin-1-yl)-1,4-dihydroquinoline-3-carboxylic acid] | 32.49 ± 0.32 µM | 3.12 µg/mL (≈ 5.75 µM) | 0.39 µg/mL (≈ 0.717 µM) | 0.097 µg/mL (≈ 0.178 µM) | 0.39 µg/mL (≈ 0.717 µM) | > 250 °C | – | – | – | – | –
